In patent US10597388B2, “Pyridazinone herbicides” (FMC CORPORATION, priority 2014, dated 2020):

Tests used:
Type in all cases: in vivo
[1] = tested on: barnyardgrass (Echinochloa crus-galli); test: Test A greenhouse herbicide test, pre- and postemergence
Summary of the method: (§1)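 Seeds sown in loam–sand blend got a preemergence directed soil spray of compound in non-phytotoxic solvent with surfactant. Postemergence treatment was given at 2–10 cm, one- to two-leaf stage. After ~10 d in greenhouse, injury was rated visually vs untreated controls, 0 (no effect) to 100 (complete control).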

[2] = tested on: pigweed (Amaranthus retroflexus); test: as above
Summary of the method: as §1

[3] = tested on: barnyardgrass (Echinochloa crus-galli); test: Test B flooded paddy test; settings: 250 g ai/ha, Flood; visual rating on scale of 0 to 100 where 0 is no effect and 100 is complete control; 13 to 15 d after treatment
Summary of the method: (§2)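 Plants at the 2-leaf stage were flooded to 3 cm above soil, and test compounds were applied directly into the paddy water, which was held at that depth throughout. After 13 to 15 d in a greenhouse, injury was rated visually against untreated controls on a 0–100 scale (0 no effect, 100 complete control).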

[4] = tested on: ducksalad (Heteranthera limosa); test: Test B flooded paddy test; settings: 250 g ai/ha, Flood; visual rating on scale of 0 to 100 where 0 is no effect and 100 is complete control; 13 to 15 d after treatment
Summary of the method: as §2

rice (Oryza sativa) = test: Test B flooded paddy test; settings: 250 g ai/ha, Flood; visual rating on scale of 0 to 100 where 0 is no effect and 100 is complete control; 13 to 15 d after treatment
Summary of the method: as §2

[5] = tested on: sedge, umbrella (small-flower umbrella sedge, Cyperus difformis); test: Test B flooded paddy test; settings: 250 g ai/ha, Flood; visual rating on scale of 0 to 100 where 0 is no effect and 100 is complete control; 13 to 15 d after treatment
Summary of the method: as §2

[6] = tested on: chickweed (common chickweed, Stellaria media); test: Test C greenhouse herbicide test, postemergence
Summary of the method: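 Steps: pot plants in peat-based medium; spray postemergence at 1- to 4-leaf stage; hold in greenhouse 13 to 15 d; score visually against controls from 0 (no effect) to 100 (complete control).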

[7] = Postemergence, 125 g ai/ha, 0 to 100 scale where 0 is no effect and 100 is complete control
[8] = Postemergence, 500 g ai/ha, visual rating after approx. 10 d, 0 to 100 scale (0 no effect, 100 complete control)
[9] = Preemergence, 125 g ai/ha, 0 to 100 scale where 0 is no effect and 100 is complete control
[10] = Preemergence, 500 g ai/ha, 0 to 100 scale where 0 is no effect and 100 is complete control
[11] = Postemergence, 31 g ai/ha, scale 0 to 100 (0 no effect, 100 complete control)
[12] = Postemergence, 125 g ai/ha, scale 0 to 100, 0 is no effect, 100 is complete control
[13] = Postemergence, 250 g ai/ha, scale 0 to 100, 0 no effect, 100 complete control, 13 to 15 d
[14] = postemergence, 62 g ai/ha, scale 0 to 100, 0 no effect, 100 complete control
[15] = Postemergence, 62 g ai/ha, 0 to 100 scale (0 no effect, 100 complete control)
[16] = postemergence, 125 g ai/ha, scale 0 to 100, 0 no effect, 100 complete control

SMILES	Plant response rating, Barnyardgrass [1, 7]	Plant response rating, Barnyardgrass [1, 8]	Barnyardgrass plant response rating [1, 9]	Plant response rating, Barnyardgrass [1, 10]	Plant response rating, Pigweed [2, 7]	Plant response rating, Pigweed [2, 8]	Pigweed plant response rating [2, 9]	Plant response rating, Pigweed [2, 10]	Plant response rating, Barnyardgrass [3]	Plant response rating, Ducksalad [4]	Plant response rating, Rice (rice (Oryza sativa))	Plant response rating, Sedge, Umbrella [5]	Plant response rating, Chickweed [6, 11]	Plant response rating, Chickweed [6, 12]	Plant response rating, Chickweed [6, 13]	Chickweed plant response rating [6, 14]	Chickweed plant response rating [6, 15]	Chickweed plant response rating [6, 16]	Plant response rating, Chickweed ([6]; Postemergence, 16 g ai/ha, scale 0 to 100 (0 no effect, 100 complete control))
Cc1nn(C)c(=O)c(-c2cc(F)cc3ccccc23)c1OS(C)(=O)=O [Compound 115]	20	90	10	50	70	90	70	100	0	0	0	0	80	90	90	75	–	–	–
Cc1nn(C)c(=O)c(-c2ccc(F)c3ccccc23)c1OC(=O)CC(F)(F)F [Compound 123]	40	70	0	80	60	70	100	100	20	30	15	70	90	90	98	90	–	–	–
Cc1ccc2ccccc2c1-c1c(O)c(Cl)nn(C)c1=O [Compound 125]	90	90	70	90	100	100	100	100	0	80	0	75	95	95	95	95	–	–	–
Cc1nn(C)c(=O)c(-c2cccc3ccc(C#N)cc23)c1O [Compound 127]	10	50	10	40	90	100	70	100	0	0	0	0	50	–	95	–	90	90	–
COC(=O)Oc1cnn(C)c(=O)c1-c1c(C)ccc2ccccc12 [Compound 143]	20	60	20	80	90	90	80	100	0	0	0	0	45	–	–	–	70	80	30
